According to patent US20160195544A1, “METHOD OF DIAGNOSING SEPSIS OR SEPSIS RISK” (UNIVERSITY OF ROCHESTER, priority 2013, published 2016):

Tests used:
[1] = tested on: neutrophils isolated from healthy donors; experiment: In vitro stimulation of neutrophils from healthy donors, VLA-3 expression by RT-PCR and flow cytometry; type: cell-based; settings: human neutrophils, 1 and 3 hours of stimulation, PMA 20 ng/ml, LPS 100 μg/ml
Description: Blood was collected from healthy volunteers via antecubital vein puncture in heparin containing vacutainers. Granulocytes and erythrocytes were separated from whole blood by centrifugation through 1-step Polymorphs (Fresenius Kabi Norge AS) density gradient. Remaining erythrocytes were removed by hypotonic lysis, yielding a neutrophil purity of >98%. The Human Research Studies Review Board of the University of Rochester approved this study, and informed consent was obtained in accordance with the Declaration of Helsinki To measure integrin expression, neutrophils were stimulated with PMA (20 ng/ml), TNF-α (20 ng/ml), LPS (100 μg/ml) or fMLP (1 μM for 1 hour or 3 hours in L15 (Leibovitz) medium with glucose at 37° C. temperatures.
Total RNA was prepared from human neutrophils or sorted mouse bone marrow granulocytes using RNeasy Mini Kit (QIAGEN, Valencia, Calif.). Similarly, RNA was reverse transcribed by using murine leukemia virus reverse transcriptase (Life Technologies, Bethesda, Md.), with oligo(dT) as the primer (Invitrogen, San Diego, Calif.). All cDNAs were divided into aliquots and stored at −20° C. until further use. Quantitation of integrins α3 and α2 on human neutrophils and IL-6, IL-β and TNFα mRNA were performed using TaqMan® Gene Expression Assays (Applied Biosystems). […] RQ values were analyzed using software.

[2] = molecular target: T1, VLA-3 (Mus musculus, UniProt P09055+Q62470); experiment: Multiphoton intravital microscopy (MP-IVM) of fMLP-superfused cremaster vessels of LysM-GFP mice; type: in vivo; settings: fMLP 1 μM superfusion, 88 μg IV
T1 construct: endogenous in cells; host or cells: neutrophils and other tissues of live mice (C57BL/6; LysM-GFP bone marrow chimeras)
Description: For MP-IVM of Lysozyme M (LysM)-GFP mice (Faust et al., “Insertion of Enhanced Green Fluorescent Protein Into the Lysozyme Gene Creates Mice With Green Fluorescent Granulocytes and Macrophages,” Blood 96:719-726 (2000), the disclosure of which is incorporated herein by reference in its entirety) in which granulocytes and monocytes express GFP were used. In order to accurately track morphological changes and migration velocities of individual extravasating leukocytes, mixed bone marrow chimera mice were generated using 80% WT and 20% LysM-GFP bone marrow into irradiated WT recipient mice to reduce the density of fluorescent cells during imaging. 8 weeks after bone marrow transfer to the irradiated recipient mice, the mice were then used for in vivo imaging. Cremaster muscle was prepared for imaging as previously described (Sumagin et al., “Leukocyte-Endothelial Cell Interactions are Linked to Vascular Permeability Via ICAM-1-Mediated Signaling,” Am. J. Physiol. Heart Circ. Physiol. 295:H969-H977 (2008), the disclosure of which is incorporated herein by reference in its entirety). Briefly, mice were anesthetized with pentobarbital sodium (65 mg/kg IP) and maintained on isoflorane inhalation anesthesia. The body temperature was maintained by placing the animal on a warming pad set. […] Imaging data were analyzed with velocity software (PerkinElmer).

[3] = molecular target: T1, VLA-3; experiment: Transmission electron microscopy of fMLP-superfused cremaster microvasculature; type: in vivo; settings: 88 μg IV
Method: Leukocyte extravasation was first observed on the fMLP-stimulated cremaster venules of LysM-GFP mice by MP-IVM. LXY2 (88 μg) peptide was injected IV when extravasating cells were noticed. The cremaster was then immediately dissected from the body post-euthanization and fixed with 2.5% glutaraldehyde. The tissue was further processed for transmission electron microscopy at the Electron Microscope Research Core at the University of Rochester for transmission electron microscopy.

[4] = molecular target: T1, VLA-3; experiment: LPS-induced endotoxemia mouse model, VLA-3 blocking with peptide; type: in vivo; settings: endotoxemia mice, 8 hours, 88 μg peptide, vs control peptide
Method: (§1) Endotoxemia and CLP were performed according to Animal Resource Protocol approved by the Committee at University of Rochester. For endotoxemia assay, 8-12-wk-old C57BL/6 (Harlan) male mice were weighed and LPS (E. coli […], Sigma-Aldrich) was administered by intra peritoneal (IP) injection to achieve LD90 mortality rate. CLP survival surgery was performed under isofluorane inhalation anesthesia. Caecum was ligated and punctured through and through with a 21-gauge needle. All the mice were resuscitated with 1 ml lactated Ringers injected subcutaneously. For VLA-3 blocking experiments, LXY2 (88 μg) (CysD-AspD-Gly-Tyr(3-NO2)-Gly-4Hyp-Asn-CysD) where the amino acids may be D amino acids, or control (88 μg) (Peptide International) peptides were administered intravenously (IV) at 2 hours and by IP at 8 hours, 32 hours following CLP or endotoxemia. Survival was monitored for 120 hours.
For flow cytometry measurement of the integrin expression on neutrophil, bone marrow (BM), peritoneal Lavage (PL), peripheral blood and lungs were isolated from naïve and septic mice at the indicated time points and subsequently single-cell suspensions were prepared. RBC lysis was performed using ACK lysing buffer (Invitrogen, San Diego, Calif.). The Fc receptors were blocked with unconjugated anti-CD16/32 (eBioscience, San Diego, Calif.) for 30 minutes. […] Data were analyzed using Flow Jo software.

[5] = molecular target: T1, VLA-3; experiment: CLP (cecal ligation and puncture) sepsis mouse model, VLA-3 blocking with peptide; type: in vivo
Method: as §1
For flow cytometry measurement of the integrin expression on neutrophil, bone marrow (BM), peritoneal Lavage (PL), peripheral blood and lungs were isolated from naïve and septic mice at the indicated time points and subsequently single-cell suspensions were prepared. RBC lysis was performed using ACK lysing buffer (Invitrogen, San Diego, Calif.). The Fc receptors were blocked with unconjugated anti-CD16/32 (eBioscience, San Diego, Calif.) for 30 minutes. Samples were stained with Alexafluor 488 labeled anti-Gr1 (Invitrogen). Allophycocyanin (APC) labeled Ly6G (BD Biosciences), PerCp-Cy5.5 labeled anti-CD11b (eBioscience, San Diego, Calif.,), fluorescein isothiocyanate (FITC) anti-F4/80 (eBioscience, San Diego, Calif., USA), purified goat anti-mouse integrin α3/CD49c (R&D Systems), PE-anti-mouse integrin α2/CD49b, α5/CD49e, αv/CD51, APC-anti-mouse integrin α6/CD49f and PE conjugated donkey anti-goat IgG (Santa Cruz) antibodies were used. All samples were fixed with 3.7% formaldehyde and collected on FACS Calliber flow cytometer (BD Biosciences, San Diego, Calif.). Data were analyzed using Flow Jo software.
Peritoneal lavage was collected after injection of 10 ml PBS into the peritoneum. […] Colony count for each group was expressed as CFU/ml.
Serum from individual mice was collected at the indicated time points and the level of IL-6 was determined by standard sandwich ELISA protocol. […] The color reaction was developed using TMB (Thermo Scientific, Rockford, Ill.) and measured with an ELISA reader (Kinetic microplate reader; Molecular Devices) at 450 nm.
All values are expressed as the mean±SEM. Data from human samples were analyzed by one-way ANOVA. Data from murine experiments were analyzed by paired non-parametric t-test (Wilcoxon test). Survival curves were analyzed by the Kaplan-Meyer log-rank test. […]

T1 sequence (Q62470 33-1053): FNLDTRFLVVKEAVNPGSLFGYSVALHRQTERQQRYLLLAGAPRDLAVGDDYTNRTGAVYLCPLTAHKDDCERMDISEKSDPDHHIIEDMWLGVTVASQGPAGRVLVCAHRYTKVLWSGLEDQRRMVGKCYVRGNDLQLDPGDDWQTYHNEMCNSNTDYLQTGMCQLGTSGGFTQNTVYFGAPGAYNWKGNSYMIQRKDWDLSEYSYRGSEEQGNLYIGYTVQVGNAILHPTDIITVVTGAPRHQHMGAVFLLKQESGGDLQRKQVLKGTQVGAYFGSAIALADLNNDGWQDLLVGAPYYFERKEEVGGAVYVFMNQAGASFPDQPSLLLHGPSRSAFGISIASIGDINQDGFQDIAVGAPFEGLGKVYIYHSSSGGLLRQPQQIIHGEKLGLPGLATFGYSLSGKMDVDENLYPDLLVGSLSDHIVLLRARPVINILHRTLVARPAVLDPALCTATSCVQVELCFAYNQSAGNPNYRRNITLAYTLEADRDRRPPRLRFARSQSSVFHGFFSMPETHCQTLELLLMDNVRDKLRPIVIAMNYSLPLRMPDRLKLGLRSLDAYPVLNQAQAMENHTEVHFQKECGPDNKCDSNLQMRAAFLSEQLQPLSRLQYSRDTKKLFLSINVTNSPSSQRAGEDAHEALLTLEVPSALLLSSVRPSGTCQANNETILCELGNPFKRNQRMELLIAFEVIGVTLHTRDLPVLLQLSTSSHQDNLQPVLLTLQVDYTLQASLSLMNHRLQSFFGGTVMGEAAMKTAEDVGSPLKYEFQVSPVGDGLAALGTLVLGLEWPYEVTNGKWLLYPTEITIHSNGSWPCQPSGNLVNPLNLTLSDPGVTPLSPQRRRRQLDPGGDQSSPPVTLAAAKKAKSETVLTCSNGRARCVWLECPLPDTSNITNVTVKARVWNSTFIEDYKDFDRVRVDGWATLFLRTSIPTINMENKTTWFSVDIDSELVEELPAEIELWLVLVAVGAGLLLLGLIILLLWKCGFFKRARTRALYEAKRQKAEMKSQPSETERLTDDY
T1 sequence (P09055 21-798): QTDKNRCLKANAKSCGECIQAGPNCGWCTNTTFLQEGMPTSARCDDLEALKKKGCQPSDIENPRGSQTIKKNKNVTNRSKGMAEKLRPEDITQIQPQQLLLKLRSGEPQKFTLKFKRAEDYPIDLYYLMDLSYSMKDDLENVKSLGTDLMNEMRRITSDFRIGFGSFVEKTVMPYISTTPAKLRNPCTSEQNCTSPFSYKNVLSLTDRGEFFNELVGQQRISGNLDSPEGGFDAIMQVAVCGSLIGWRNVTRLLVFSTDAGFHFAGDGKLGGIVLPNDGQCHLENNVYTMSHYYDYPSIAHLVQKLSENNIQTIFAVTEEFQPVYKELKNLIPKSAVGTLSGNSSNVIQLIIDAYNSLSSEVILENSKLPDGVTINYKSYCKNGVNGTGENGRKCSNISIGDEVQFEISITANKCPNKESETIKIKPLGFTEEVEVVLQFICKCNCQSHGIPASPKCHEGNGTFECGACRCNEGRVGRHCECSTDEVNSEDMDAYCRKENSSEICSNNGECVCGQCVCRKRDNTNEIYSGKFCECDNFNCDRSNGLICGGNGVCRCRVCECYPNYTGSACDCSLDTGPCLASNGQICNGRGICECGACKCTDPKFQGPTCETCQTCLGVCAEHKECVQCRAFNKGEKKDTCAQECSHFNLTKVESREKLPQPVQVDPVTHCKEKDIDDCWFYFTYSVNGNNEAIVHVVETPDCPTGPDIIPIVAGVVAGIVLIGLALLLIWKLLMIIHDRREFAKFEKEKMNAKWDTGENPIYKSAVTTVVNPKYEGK

| Molecule | mRNA level of VLA-3 ([1]; RT-PCR) | protein (cell-surface) level of VLA-3 ([1]; flow cytometry) | neutrophil extravasation in response to fMLP [2] | location of neutrophils in the vessel wall (ultrastructural analysis) [3] | number of tissue-infiltrating neutrophils (PL) [4] | survival / sepsis lethality ([5]; CLP and endotoxemia mice, 88 μg IV at 2 hours and IP at 8 and 32 hours, survival monitored 120 hours, Kaplan-Meyer log-rank) | number of tissue-infiltrating neutrophils (PL and lungs) ([5]; mice with CLP-induced sepsis, 8 hours after CLP, 88 μg/dose IV, vs control peptide) | local bacterial clearance (bacterial load in PL) ([5]; septic mice, PL streaked on TSA blood agar, colonies counted after 24 hours) | levels of the IL-6 cytokine in the serum ([5]; septic mice, sandwich ELISA) |
| --- | --- | --- | --- | --- | --- | --- | --- | --- | --- |
| CCCCCCCCCCCCCC(=O)O[C@@H]1[C@@H](C)[C@@]2(O)[C@@H](C=C(CO)C[C@]3(O)C(=O)C(C)=C[C@@H]23)[C@@H]2C(C)(C)[C@]12OC(C)=O [PMA] | significant increases | significant increases |  |  |  |  |  |  |  |
| CysD-AspD-Gly-Tyr(3-NO2)-Gly-4Hyp-Asn-CysD [LXY2] |  |  | dramatically reduced | majority of neutrophils accumulated within the space between the endothelium and the basement membrane | significantly reduced | protected mice from sepsis lethality | significantly reduced | without altering | reduced |
